1 molecule from patent US11149047B2, “Aryl imidazoles for treatment of cancer” (Aptose Biosciences Inc., priority 2017, dated 2021) can be followed below.

The test system of one data set is Raji/COMPOUND IR cells. The data set is described as follows: Cellular pharmacology: intracellular accumulation and efflux by LC-MS/MS. It is filed as in vitro ADME, human. How it is done:
Cells exposed to COMPOUND I or Fe(COMPOUND I)3 were homogenized in acetonitrile containing 5 ng of a deuterated COMPOUND I standard. Samples were analyzed at the UCSD Molecular Mass Spectrometry Facility employing an Agilent 1260 liquid chromatograph (LC) system coupled with a Thermo LCQdeca mass spectrometer using positive ion mode electrospray ionization (ESI) as the ion source. The ESI ion source voltage was set at 5 kV, with sheath gas flow rate of 80 units, auxiliary gas flow rate of 20 units, and capillary temperature of 250° C., respectively. A Phenomenex Kinetex Biphenyl column (ID 2.1 mm×length 50 mm, particle size 2.6 μm) was utilized for LC separation using water with 0.1% formic acid as the mobile phase A and acetonitrile with 0.1% formic acid as the mobile phase B. The LC flow rate was set at 0.30 mL/min. The LC gradient increased from 5% mobile phase B to 95% mobile phase B in 10 minutes, held at 95% B for 2 minutes, returned to 5% B in 1 minute, and then held at 5% B for 6 minutes. […] Selected reaction monitoring (SRM) mode was used to acquire the m/z 353 and m/z 359 fragmental peaks. The SRM peak area ratio (COMPOUND I/COMPOUND I-d6) related to the amount of spiked COMPOUND I-d6 was used for the quantification of COMPOUND I and Fe(COMPOUND I)3 in the samples. The same column, gradient and flow rate were used for detection of Fe(COMPOUND I)3 which was detected using an Agilent 1100 HPLC and Orbitrap XL (Thermo) mass spectrometer employing a Thermo IonMax ESI interface. The Fe(COMPOUND I)3 eluted around 11.5 minutes with these conditions. A 10:1 flow split was used for the eluent flow rate of 0.3 mL/min, so that approximately 0.030 mL/min was introduced into the ESI after the split. […]
Resistance in the Raji/COMPOUND IR cells may be due to alterations in influx or efflux, intracellular detoxification or a change in the primary target of the drug. The intracellular accumulation of both native COMPOUND I and the Fe(COMPOUND I)3 in Raji and Raji/COMPOUND IR cells incubated with either native COMPOUND I or the Fe(COMPOUND I)3 complex was monitored.

Data set [1] deals with MV4-11, EOL1, or KG-1 cells. The data set is described as follows: Detection of reactive oxygen species (molecular sensors, GSH changes). It is filed as cell-based. The source says: In addition, cells harboring BRCA1/2 mutations are hypersensitive to COMPOUND I, further supporting a role for DNA damage in COMPOUND I mechanism of action. COMPOUND I consistently produced upregulation of CDKN1A, which mediates arrest in G0-G1. In addition, CDKN1A can be induced after DNA double-strand breaks to block cell-cycle progression to allow for sufficient time to repair DNA. In combination with CDKN1A induction, COMPOUND I increased KLF4 gene expression in many AML cell lines, which is known to regulate CDKN1A as part of the G1 cell-cycle checkpoint. […] The role of KLF4 in COMPOUND I mechanism of action is of interest for future studies.

As for `Cc1[nH]c2ccc(F)cc2c1-c1nc2c3cccnc3c3ncccc3c2[nH]1` [COMPOUND I, 2-(5-fluoro-2-methyl-1H-indol-3-yl)-1H-imidazo[4,5-f][1,10]phenanthroline], the “rate of accumulation in Raji/COMPOUND IR vs Raji cells” value with Raji/COMPOUND IR cells (0.5 μM, FIG. 6A, 6B) is on record as “severely reduced”. In addition, the “Rate of efflux over first 2 hours” value in the data set with Raji/COMPOUND IR cells (Raji/COMPOUND IR cells, mean ± SEM, n = 6) is listed as −0.26 ± 0.025 log fmole/10^7 cells/h. Further, the “difference in efflux over first 2 h between Raji and Raji/COMPOUND IR” value with Raji/COMPOUND IR cells (after loading of the cells) was “no apparent difference in the efflux”. Besides, the “generation of reactive oxygen species” value in data set [1] was “no such species have been detected”.
